From ChEMBL document CHEMBL1150717, “5'-Hydroxyisoavrainvilleol, a new diphenylmethane derivative from the tropical green alga Avrainvillea nigricans” (J Nat Prod, 1987)
In brackets after ≈: the same amount, converted by molar mass. Activity calls are given as the source filed them. The calls are words filed in the database; no cut-off is given here.

Assays:
Carassius auratus = experiment: Toxicity in goldfish at 10 ug/ml; format: organism-based; settings: in vivo
Bacillus subtilis [1] = experiment: Antimicrobial activity against Bacillus subtilis at 25 ug/disk by paper disk antibiotic sensitivity assay; format: functional; settings: read-out: IZ
Bacillus subtilis [2] = experiment: Antimicrobial activity against Bacillus subtilis at 50 ug/disk by paper disk antibiotic sensitivity assay; format: functional; settings: read-out: IZ
Bacillus subtilis [3] = experiment: Antimicrobial activity against Bacillus subtilis at 100 ug/disk by paper disk antibiotic sensitivity assay; format: functional; settings: read-out: IZ
Staphylococcus aureus [4] = experiment: Antimicrobial activity against Staphylococcus aureus at 25 ug/disk by paper disk antibiotic sensitivity assay; format: functional; settings: read-out: IZ
Staphylococcus aureus [5] = experiment: Antimicrobial activity against Staphylococcus aureus at 50 ug/disk by paper disk antibiotic sensitivity assay; format: functional; settings: read-out: IZ
Staphylococcus aureus [6] = experiment: Antimicrobial activity against Staphylococcus aureus at 100 ug/disk by paper disk antibiotic sensitivity assay; format: functional; settings: read-out: IZ
Pseudomonas aeruginosa [7] = experiment: Antimicrobial activity against Pseudomonas aeruginosa at 100 ug/disk by paper disk antibiotic sensitivity assay; format: functional
Escherichia coli [8] = experiment: Antimicrobial activity against Escherichia coli at 100 ug/disk by paper disk antibiotic sensitivity assay; format: functional, organism-based
Serratia marcescens [9] = experiment: Antimicrobial activity against Serratia marcescens at 200 ug/disk by paper disk antibiotic sensitivity assay; format: functional; settings: read-out: IZ
Candida albicans [10] = experiment: Antimicrobial activity against Candida albicans at 100 ug/disk by paper disk antibiotic sensitivity assay; format: functional, organism-based
KB = experiment: Cytotoxicity against human KB cells; format: functional; settings: read-out: ID50 (the source's name)
Pseudomonas aeruginosa [11] = experiment: Antimicrobial activity against Pseudomonas aeruginosa at 200 ug/disk by paper disk antibiotic sensitivity assay; format: functional; settings: read-out: IZ
Escherichia coli [12] = experiment: Antimicrobial activity against Escherichia coli at 200 ug/disk by paper disk antibiotic sensitivity assay; format: functional; settings: read-out: IZ
Serratia marcescens [13] = experiment: Antimicrobial activity against Serratia marcescens at 100 ug/disk by paper disk antibiotic sensitivity assay; format: functional
Candida albicans [14] = experiment: Antimicrobial activity against Candida albicans at 200 ug/disk by paper disk antibiotic sensitivity assay; format: functional; settings: read-out: IZ

| Compound | Activity (Carassius auratus) | zone of inhibition at 25 µg/disc (Bacillus subtilis [1]) [mm] | zone of inhibition at 50 µg/disc (Bacillus subtilis [2]) [mm] | zone of inhibition at 100 µg/disc (Bacillus subtilis [3]) [mm] | zone of inhibition at 25 µg/disc (Staphylococcus aureus [4]) [mm] | zone of inhibition at 50 µg/disc (Staphylococcus aureus [5]) [mm] | zone of inhibition at 100 µg/disc (Staphylococcus aureus [6]) [mm] | inhibition zone (IZ) (Pseudomonas aeruginosa [7]) | inhibition zone (IZ) (Escherichia coli [8]) | zone of inhibition at 200 µg/disc (Serratia marcescens [9]) [mm] | inhibition zone (IZ) (Candida albicans [10]) | IC50 (KB) [mg/L] | zone of inhibition at 100 µg/disc (Pseudomonas aeruginosa [7]; read-out: IZ) [mm] | zone of inhibition at 200 µg/disc (Pseudomonas aeruginosa [11]) [mm] | zone of inhibition at 200 µg/disc (Escherichia coli [12]) [mm] | zone of inhibition at 100 µg/disc (Serratia marcescens [13]; read-out: IZ) [mm] | zone of inhibition at 200 µg/disc (Candida albicans [14]) [mm] | inhibition zone (IZ) (Serratia marcescens [13]) |
| --- | --- | --- | --- | --- | --- | --- | --- | --- | --- | --- | --- | --- | --- | --- | --- | --- | --- | --- |
| OCc1cc(Br)c(O)c(O)c1Cc1ccc(O)c(Br)c1 [AVRAINVILLEOL] | Non-toxic | 9 | 12 | 14 | 10 | 12 | 16 | inactive | inactive | 9 | inactive | 10 (≈ 24.7 µM) |  |  |  |  |  |  |
| OCc1cc(O)c(O)c(Br)c1 | Non-toxic | 8 | 10 | 12 | 8 | 11 | 13 |  |  | 13 |  | 8.9 (≈ 40.6 µM) | 8 | 9 | 10 | 9 | 8 |  |
| OCc1cc(O)c(O)c(Br)c1Cc1cc(O)c(O)c(Br)c1 | Non-toxic | 9 | 10 | 11 |  |  | 10 | inactive | inactive |  | inactive |  |  |  |  |  |  | inactive |
